Test results published in ChEMBL document CHEMBL2095176, “GSK Tuberculosis Screening Data”.
In brackets after ≈: the same amount, converted by molar mass.

Experiments:
[1] = tested on: Mycobacterium tuberculosis H37Rv; experiment: microbe, parasite or virus in culture
Description: GSK_TB: Intracellular minimum inhibitory concentration (MIC) H37Rv assay

physchem [2] = conditions: phosphate buffered saline, pH 7.4
physchem [3] = conditions: buffer, pH 7.4
Description: GSK_TB: GSK in-house hydrophobicity assay at pH7.4 (logD)

physchem [4] = conditions: octanol/water
Description: GSK_TB: GSK in-house hydrophobicity assay (logP)

| SMILES | MIC90 [1] | solubility kinetic (physchem [2]) | logD (physchem [3]) | logP (physchem [4]) |
| --- | --- | --- | --- | --- |
| N#Cc1nc(-c2ccccc2F)oc1NCCc1ccccc1 | 2.79 µM (≈ 0.856 µg/mL) | 3 µM (≈ 0.922 µg/mL) | 6.37 | 6.63 |
| Cc1ccc(C(=O)Nc2nc(-c3ccccn3)cs2)s1 | 8.41 µM (≈ 2.54 µg/mL) | 15 µM (≈ 4.52 µg/mL) | 4.6 | 4.61 |
| CCOC(=O)c1cc(-c2csc(Nc3c(C)cc(C)cc3C)n2)on1 | 4.07 µM (≈ 1.46 µg/mL) | 1 µM (≈ 0.357 µg/mL) | 7.12 | 7.45 |
| O=C(c1cnn(C(=O)c2ccco2)c1)c1cc(F)ccc1O | 9.55 µM (≈ 2.87 µg/mL) | 1 µM (≈ 0.3 µg/mL) |  |  |
| CC(Oc1ccccc1)C(=O)Nc1nc(-c2ccccn2)cs1 (centres undefined) | 9.77 µM (≈ 3.18 µg/mL) | 174 µM (≈ 56.6 µg/mL) | 5.07 | 5.06 |
| c1ccc(-c2nc(N3CCCCCC3)nc(-n3ccnc3)n2)cc1 | 7.41 µM (≈ 2.38 µg/mL) | 1 µM (≈ 0.32 µg/mL) |  |  |
| CNc1nc(SC)nc2ccccc12 | 0.2 µM (≈ 0.0411 µg/mL) |  |  |  |
| Cc1nnc(NCc2cccc(Cl)c2)c2ccccc12 | 5.9 µM (≈ 1.67 µg/mL) | 127 µM (≈ 36 µg/mL) | 4.32 | 4.52 |
| O=C(NC1=NCCS1)c1sc2cc(F)ccc2c1Cl | 8.61 µM (≈ 2.71 µg/mL) | 1 µM (≈ 0.315 µg/mL) | 5.16 | 5.49 |
| CCc1nnc(NC(=O)c2cccc(C(=O)Nc3nnc(CC)s3)n2)s1 | 8 µM (≈ 3.12 µg/mL) | 26 µM (≈ 10.1 µg/mL) |  |  |
| COc1ccc(-c2cc(=O)c3cc(OCC(=O)OC(C)C)ccc3o2)cc1 | 2.95 µM (≈ 1.09 µg/mL) |  | 5.91 | 6.29 |
| O=C(Nc1nnc(-c2ccc(Cl)cc2)o1)c1cccc(C(F)(F)F)c1 | 5.62 µM (≈ 2.07 µg/mL) | 1 µM (≈ 0.368 µg/mL) | 4.51 | 6.29 |
| O=C(Cc1ccc(F)cc1)Nc1nc(-c2ccccn2)cs1 | 9.3 µM (≈ 2.91 µg/mL) | 14 µM (≈ 4.39 µg/mL) | 4.32 | 4.33 |
| COc1ccc(-c2cncc(-c3cc(N4CCN(CCO)CC4)nc(-c4ccccc4)n3)c2)cc1 | 1.45 µM (≈ 0.676 µg/mL) | 1 µM (≈ 0.468 µg/mL) | 5.91 | 6.34 |
| O=C(O)C(F)(F)F.c1ccc(C[C@H]2CN(c3nccc(Oc4ccc(-n5ccnc5)cc4)n3)CCN2)cc1 | 1.8 µM | 260 µM | 3.58 | 4.33 |
| Br.Cc1cc(C)cc(OCCCON2C(=N)N=C(N)NC2(C)C)c1 | 5.31 µM | 358 µM | 3.2 | 4.72 |
| Cc1ccc(C2CC(C(F)(F)F)n3ncc(C(=O)NCc4ccc5c(c4)OCO5)c3N2)cc1 (centres undefined) | 5.4 µM (≈ 2.48 µg/mL) |  |  |  |
| c1ccc(CCNc2cc(-c3ccccc3)nc3nncn23)cc1 | 5.5 µM (≈ 1.73 µg/mL) | 6 µM (≈ 1.89 µg/mL) | 4.97 | 5.13 |

| SMILES | MIC90 [1] | solubility kinetic (physchem [2]) | logD (physchem [3]) | logP (physchem [4]) |
| --- | --- | --- | --- | --- |
| O=C(O)C(F)(F)F.c1ccc2c(-c3ccc(CNCC4CCNC4)cc3)cncc2c1 (centres undefined) | 5.56 µM | 61 µM | 1.52 | 3.02 |
| Cc1cnc(N2CCN[C@@H](Cc3ccccc3)C2)nc1Oc1ccc(-n2ccnc2)cc1.O=C(O)C(F)(F)F | 9.23 µM | 228 µM | 4.04 | 5.03 |
| COc1ccc2cc(C(=O)Nc3ccc(C4CCN(C)CC4)cc3)sc2c1 | 9.55 µM (≈ 3.63 µg/mL) | 62 µM (≈ 23.6 µg/mL) | 3.11 | 5.93 |
| Cc1ccc2nc(C)c(C(=O)NCc3cccs3)n2c1 | 0.2 µM (≈ 0.0571 µg/mL) |  |  |  |
| Nc1cccnc1Nc1ccc(Cl)cc1 | 0.232 µM (≈ 0.0509 µg/mL) | 94 µM (≈ 20.6 µg/mL) |  |  |
| COc1ccc2nc(C)cc(OCC(=O)Nc3cc(C)cc(C)c3)c2c1 | 0.3 µM (≈ 0.105 µg/mL) |  |  |  |
| Cc1cccc(-c2nc(Nc3ccncn3)c3c(C)csc3n2)n1 | 0.3 µM (≈ 0.1 µg/mL) |  |  |  |
| Nc1nc2cc(-c3cncc(Oc4ccc(F)cc4)c3)ccc2[nH]1.O=C(O)C(F)(F)F.O=C(O)C(F)(F)F | 0.347 µM | 100 µM | 3.11 | 3.12 |
| COc1ccc2nc(C)cc(OCC(=O)Nc3ccccc3OC)c2c1 | 0.4 µM (≈ 0.141 µg/mL) |  |  |  |
| Cc1cc(/C=C/c2cccc(C(=O)O)c2)cc(Cl)c1OC[C@@H]1CCCN1C | 0.457 µM (≈ 0.176 µg/mL) | 486 µM (≈ 188 µg/mL) |  |  |
| Cc1ccccc1CN1CCC(O)(c2ccc(Cl)c(C(F)(F)F)c2)CC1 | 4.2 µM (≈ 1.61 µg/mL) | 77 µM (≈ 29.6 µg/mL) |  |  |
| N=C(N)c1ccc(CCN2CCC(c3nc(COCC(F)(F)F)c(-c4ccc(F)cc4)o3)CC2)cc1.O=C(O)C(F)(F)F.O=C(O)C(F)(F)F | 6.17 µM | 255 µM | 3.76 | 6.14 |
| Nc1ccccc1Nc1ccc2c(c1)OCO2 | 1.82 µM (≈ 0.415 µg/mL) | 139 µM (≈ 31.7 µg/mL) |  |  |
| Nc1cccnc1Nc1ccc(C(F)(F)F)cc1 | 2.24 µM (≈ 0.567 µg/mL) | 328 µM (≈ 83.1 µg/mL) | 4.97 | 5.03 |
| COc1cccc(-c2nc3c(N4CCCC4)cccc3n2CC2CCCN2)n1.O=C(O)C(F)(F)F (centres undefined) | 9.77 µM | 78 µM |  |  |
| Cn1c(=O)c2c([S+](C)[O-])snc2n(C)c1=O (centres undefined) | 9.77 µM (≈ 2.53 µg/mL) | 420 µM (≈ 109 µg/mL) | 1.24 | 1.24 |
| Cc1cc(OCC(=O)NCc2ccccc2)c2cc(Br)ccc2n1 | 2.3 µM (≈ 0.886 µg/mL) | 15 µM (≈ 5.78 µg/mL) | 4.97 | 5.13 |
| c1ccc(SCc2nn3c(-c4ccccc4)nnc3s2)cc1 | 2.69 µM (≈ 0.873 µg/mL) | 1 µM (≈ 0.324 µg/mL) | 5.44 | 5.78 |
